Here are results for one molecule from patent US20240197686A1, “ANTI-TUMORAL EFFECTIVE BENZIMIDAZOLE ZINC COMPLEXES” (INONU UNIVERSITESI REKTORLUGU, priority 2022, published 2024).

Data set [1] deals with lung, liver, kidney tissues. The data set can be described thus: Histology (H-E, light microscope) of lung, liver, kidney tissues of tumour developed nude rats. Conditions: for Histopathological damage in lung, liver and kidney tissues (overall): rat, in vivo. In kind it is in vivo. The source says:
After […] operation; lung, liver, kidney tissues were taken and 10% were fixed in formaldehyde, and the sections prepared after their histological tissue follow-up procedures were examined with a light microscope.

For data set [2], the system named is Lung Cancer. To be noted: lung cancer treatment; cited from earlier work.

“Also recorded” adds a separate entry of the source.

Take `N.N.[Cl][Pt][Cl]` [Cisplatin, cis-diamminedichloroplatinum II]: in data set [1] (H-E sections), the Kidney histology entry was “narrowing in glomerular Bowman's space (arrow), tubule epithelial damage; also recorded: Glomerular collapse and vascular congestion”; the Liver histology result is “hemorage (aster) in parenchymal area, vascular congestion; also recorded: hemorrhagic fields and vascular congestion in parenchyma”; the Lung histology result is “Secretion (aster) in bronchiole lumen, vascular congestion; also recorded: Secretion accumulations and vascular congestion”. Also, the “Histopathological damage in lung, liver and kidney tissues (overall)” value in data set [1] was “caused tissue damages”. For the same molecule, the “Histopathological damage in lung, liver and kidney tissues (overall)” value in data set [1] (listed as cisplatin) is “causes histopathological damages in lung, liver and kidney tissues”. Besides, the surviving in data set [2] is 6 months.
